Activity calls are given as the source filed them.
Columns and labels:
[1] = Unbound plasma concentration in CD1 mouse model of formalin-induced nociception at 30 mg/kg, po; format: ADME, organism-based; settings: in vivo
Cytochrome P450 3A4 = Cytochrome P450 3A4 (Homo sapiens, UniProt P08684); test: Inhibition of CYP3A4 in human liver microsomes; format: ADME
[2] = Fraction unbound in mouse DRG neurons; format: ADME, cell-based, DRG neuron
Mus musculus [3] = test: Analgesic activity in CD1 mouse model of CFA-induced thermal hyperalgesia assessed as reduction in thermal response latency at 30 mg/kg, ip administered 72 hrs post CFA challenge and measured at 60 mins post dose by Hargreave's test; format: functional, organism-based
[4] = molecular target: T1, Sodium channel protein type 9 subunit alpha (Mus musculus, UniProt Q62205); test: Inhibition of Nav1.7 in mouse DRG neurons at -70 mV holding potential by patch clamp electrophysiology method
T1 sequence (Q62205 whole entry): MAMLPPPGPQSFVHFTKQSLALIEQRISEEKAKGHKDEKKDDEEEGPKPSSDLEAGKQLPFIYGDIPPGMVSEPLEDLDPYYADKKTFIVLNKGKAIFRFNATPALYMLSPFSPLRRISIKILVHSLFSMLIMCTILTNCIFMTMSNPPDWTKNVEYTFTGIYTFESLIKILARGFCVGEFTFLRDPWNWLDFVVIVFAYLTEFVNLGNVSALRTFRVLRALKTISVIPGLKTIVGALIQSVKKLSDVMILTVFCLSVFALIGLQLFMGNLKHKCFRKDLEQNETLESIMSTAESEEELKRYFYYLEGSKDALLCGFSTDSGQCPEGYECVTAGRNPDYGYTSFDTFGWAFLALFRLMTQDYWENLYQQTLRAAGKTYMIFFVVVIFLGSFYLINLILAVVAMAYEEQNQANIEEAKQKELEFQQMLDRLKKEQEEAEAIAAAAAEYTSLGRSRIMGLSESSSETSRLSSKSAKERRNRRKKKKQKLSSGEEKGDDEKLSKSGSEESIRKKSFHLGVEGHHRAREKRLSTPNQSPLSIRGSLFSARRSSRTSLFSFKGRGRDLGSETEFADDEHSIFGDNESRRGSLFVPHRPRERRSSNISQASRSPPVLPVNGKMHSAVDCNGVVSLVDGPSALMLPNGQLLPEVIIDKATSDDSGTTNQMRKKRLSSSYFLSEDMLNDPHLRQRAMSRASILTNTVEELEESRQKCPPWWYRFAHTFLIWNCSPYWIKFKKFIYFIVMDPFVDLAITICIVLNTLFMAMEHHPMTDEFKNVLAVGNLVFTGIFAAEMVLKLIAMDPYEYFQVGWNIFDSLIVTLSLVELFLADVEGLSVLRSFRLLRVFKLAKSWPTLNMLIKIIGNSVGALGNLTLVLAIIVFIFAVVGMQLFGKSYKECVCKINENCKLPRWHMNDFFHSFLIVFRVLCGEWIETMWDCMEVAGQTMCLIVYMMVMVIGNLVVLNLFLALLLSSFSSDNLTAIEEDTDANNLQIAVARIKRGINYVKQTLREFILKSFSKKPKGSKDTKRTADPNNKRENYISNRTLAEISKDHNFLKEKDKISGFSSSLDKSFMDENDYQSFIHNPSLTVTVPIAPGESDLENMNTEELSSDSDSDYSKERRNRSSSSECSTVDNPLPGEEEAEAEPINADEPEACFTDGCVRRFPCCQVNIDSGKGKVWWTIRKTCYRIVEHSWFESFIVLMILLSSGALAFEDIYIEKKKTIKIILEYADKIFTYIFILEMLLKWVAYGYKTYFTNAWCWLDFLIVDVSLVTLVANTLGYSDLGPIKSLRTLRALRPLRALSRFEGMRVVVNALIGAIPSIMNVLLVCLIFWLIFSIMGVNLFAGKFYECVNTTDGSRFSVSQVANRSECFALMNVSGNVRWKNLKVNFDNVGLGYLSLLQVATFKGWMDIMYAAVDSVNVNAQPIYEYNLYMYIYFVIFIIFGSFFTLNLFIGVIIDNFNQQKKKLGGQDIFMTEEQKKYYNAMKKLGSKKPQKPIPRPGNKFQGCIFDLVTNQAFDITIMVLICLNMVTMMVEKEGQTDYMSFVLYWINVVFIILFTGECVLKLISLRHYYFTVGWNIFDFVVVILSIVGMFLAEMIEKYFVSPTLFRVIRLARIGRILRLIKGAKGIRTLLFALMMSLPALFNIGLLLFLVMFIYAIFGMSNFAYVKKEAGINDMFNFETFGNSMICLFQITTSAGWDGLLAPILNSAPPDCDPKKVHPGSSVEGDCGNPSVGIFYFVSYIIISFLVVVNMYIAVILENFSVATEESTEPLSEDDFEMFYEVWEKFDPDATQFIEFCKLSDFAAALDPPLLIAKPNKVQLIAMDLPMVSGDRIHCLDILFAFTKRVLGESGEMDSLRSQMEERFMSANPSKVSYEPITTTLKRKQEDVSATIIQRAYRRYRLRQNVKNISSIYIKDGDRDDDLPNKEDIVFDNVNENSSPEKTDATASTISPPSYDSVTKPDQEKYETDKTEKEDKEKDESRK

[5] = molecular target: T2, Nuclear receptor subfamily 1 group I member 2 (Homo sapiens, UniProt O75469); test: Inhibition of PXR (unknown origin); format: ADME
T2 sequence (O75469 whole entry): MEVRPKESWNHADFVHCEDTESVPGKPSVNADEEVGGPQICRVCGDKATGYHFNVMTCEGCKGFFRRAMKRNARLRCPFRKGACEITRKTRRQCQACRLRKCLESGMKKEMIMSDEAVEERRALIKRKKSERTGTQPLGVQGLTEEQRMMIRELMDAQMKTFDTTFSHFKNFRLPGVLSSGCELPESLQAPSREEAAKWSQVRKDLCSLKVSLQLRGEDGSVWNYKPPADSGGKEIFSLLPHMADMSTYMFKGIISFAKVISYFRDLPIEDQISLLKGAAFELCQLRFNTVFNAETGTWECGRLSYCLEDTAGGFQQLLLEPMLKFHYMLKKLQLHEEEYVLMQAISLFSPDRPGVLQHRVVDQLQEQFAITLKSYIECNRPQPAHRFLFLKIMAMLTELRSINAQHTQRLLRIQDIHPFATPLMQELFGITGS

[6] = molecular target: Sodium channel protein type 5 subunit alpha (Homo sapiens, UniProt Q14524); test: Inhibition of human Nav1.5 expressed in HEK293 cells after 600 secs at -50 mV holding potential by ion works barracuda population patch clamp method; format: cell-based
Sodium channel protein type 5 subunit alpha, sequence (Q14524 whole entry): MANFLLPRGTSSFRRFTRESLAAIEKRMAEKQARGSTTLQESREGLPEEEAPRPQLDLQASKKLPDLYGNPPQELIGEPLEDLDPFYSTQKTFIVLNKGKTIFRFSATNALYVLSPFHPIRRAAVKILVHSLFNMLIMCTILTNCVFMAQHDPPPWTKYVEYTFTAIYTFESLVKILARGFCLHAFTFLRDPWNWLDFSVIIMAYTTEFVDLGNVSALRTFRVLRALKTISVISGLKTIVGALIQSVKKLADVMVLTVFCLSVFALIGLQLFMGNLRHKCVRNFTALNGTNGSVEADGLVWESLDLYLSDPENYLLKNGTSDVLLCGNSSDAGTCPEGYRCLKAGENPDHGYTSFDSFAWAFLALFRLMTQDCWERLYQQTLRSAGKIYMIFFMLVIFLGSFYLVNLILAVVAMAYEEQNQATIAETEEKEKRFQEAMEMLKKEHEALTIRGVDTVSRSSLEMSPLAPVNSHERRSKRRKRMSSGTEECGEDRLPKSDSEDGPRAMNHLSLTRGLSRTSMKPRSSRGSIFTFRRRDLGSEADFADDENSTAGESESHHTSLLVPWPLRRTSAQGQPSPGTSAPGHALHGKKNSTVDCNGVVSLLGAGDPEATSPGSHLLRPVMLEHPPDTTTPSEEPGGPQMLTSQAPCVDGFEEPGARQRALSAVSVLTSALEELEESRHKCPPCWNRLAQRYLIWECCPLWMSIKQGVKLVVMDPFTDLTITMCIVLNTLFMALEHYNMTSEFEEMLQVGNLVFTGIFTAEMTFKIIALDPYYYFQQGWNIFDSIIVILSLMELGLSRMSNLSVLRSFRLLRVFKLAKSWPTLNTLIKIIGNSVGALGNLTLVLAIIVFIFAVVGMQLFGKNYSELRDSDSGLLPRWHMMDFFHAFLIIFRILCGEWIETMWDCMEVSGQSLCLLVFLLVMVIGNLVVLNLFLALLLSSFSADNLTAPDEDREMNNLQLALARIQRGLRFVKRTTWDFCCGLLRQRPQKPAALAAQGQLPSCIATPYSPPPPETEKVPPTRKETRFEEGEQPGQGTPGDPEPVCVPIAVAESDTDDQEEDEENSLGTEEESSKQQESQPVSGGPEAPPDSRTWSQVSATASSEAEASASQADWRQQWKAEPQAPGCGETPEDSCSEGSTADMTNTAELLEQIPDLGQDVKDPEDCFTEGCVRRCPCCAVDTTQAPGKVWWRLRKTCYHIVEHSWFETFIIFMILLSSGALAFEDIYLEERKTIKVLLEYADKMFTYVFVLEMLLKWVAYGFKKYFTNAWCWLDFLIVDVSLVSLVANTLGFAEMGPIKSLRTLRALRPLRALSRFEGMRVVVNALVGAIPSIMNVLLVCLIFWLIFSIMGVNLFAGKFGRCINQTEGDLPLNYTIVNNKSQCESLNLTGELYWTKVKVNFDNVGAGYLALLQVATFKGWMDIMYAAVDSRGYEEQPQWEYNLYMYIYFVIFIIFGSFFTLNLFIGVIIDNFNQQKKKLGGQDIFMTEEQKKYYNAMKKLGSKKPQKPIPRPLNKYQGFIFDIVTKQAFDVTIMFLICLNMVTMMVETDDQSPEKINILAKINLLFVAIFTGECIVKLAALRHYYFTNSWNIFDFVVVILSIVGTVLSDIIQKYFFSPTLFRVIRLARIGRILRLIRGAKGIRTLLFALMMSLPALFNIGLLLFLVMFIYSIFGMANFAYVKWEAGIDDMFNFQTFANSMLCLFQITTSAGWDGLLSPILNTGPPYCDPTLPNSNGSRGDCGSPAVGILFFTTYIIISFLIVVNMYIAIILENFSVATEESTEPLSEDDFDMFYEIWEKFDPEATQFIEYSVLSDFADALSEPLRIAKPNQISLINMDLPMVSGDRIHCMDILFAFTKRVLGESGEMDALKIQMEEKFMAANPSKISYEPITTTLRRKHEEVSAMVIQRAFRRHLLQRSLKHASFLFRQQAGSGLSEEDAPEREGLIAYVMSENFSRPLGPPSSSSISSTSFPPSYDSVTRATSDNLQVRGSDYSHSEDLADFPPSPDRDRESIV

[7] = Unbound plasma concentration in CD1 mouse model of CFA-induced thermal hyperalgesia at 3 to 30 mg/kg, ip; format: ADME, organism-based; settings: in vivo
[8] = Unbound drug level in DRG neurons of CD1 mouse model of formalin-induced nociception at 30 mg/kg, po; format: ADME, organism-based, DRG neuron; settings: in vivo
[9] = Fraction unbound in mouse plasma; format: ADME, cell-free
Cytochrome P450 2D6 = Cytochrome P450 2D6 (Homo sapiens, UniProt P10635); test: Inhibition of CYP2D6 in human liver microsomes; format: ADME
Cytochrome P450 2D6, sequence (P10635 whole entry): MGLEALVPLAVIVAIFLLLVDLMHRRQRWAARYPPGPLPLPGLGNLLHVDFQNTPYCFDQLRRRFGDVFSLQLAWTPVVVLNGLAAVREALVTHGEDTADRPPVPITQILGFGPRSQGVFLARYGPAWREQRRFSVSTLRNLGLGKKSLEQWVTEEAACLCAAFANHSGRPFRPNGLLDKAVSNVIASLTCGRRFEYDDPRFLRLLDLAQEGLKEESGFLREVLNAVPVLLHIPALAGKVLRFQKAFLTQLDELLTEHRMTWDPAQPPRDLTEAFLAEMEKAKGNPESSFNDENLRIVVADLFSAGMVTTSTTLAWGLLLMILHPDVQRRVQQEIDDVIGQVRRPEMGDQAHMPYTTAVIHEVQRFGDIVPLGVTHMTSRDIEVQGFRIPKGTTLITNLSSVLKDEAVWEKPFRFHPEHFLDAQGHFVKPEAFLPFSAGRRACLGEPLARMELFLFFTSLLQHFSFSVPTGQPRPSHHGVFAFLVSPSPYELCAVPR

Cytochrome P450 2C8 = molecular target: T3, Cytochrome P450 2C8 (Homo sapiens, UniProt P10632); test: Time-dependant inhibition of CYP2C8 in human liver microsomes; format: ADME
T3 sequence (P10632 whole entry): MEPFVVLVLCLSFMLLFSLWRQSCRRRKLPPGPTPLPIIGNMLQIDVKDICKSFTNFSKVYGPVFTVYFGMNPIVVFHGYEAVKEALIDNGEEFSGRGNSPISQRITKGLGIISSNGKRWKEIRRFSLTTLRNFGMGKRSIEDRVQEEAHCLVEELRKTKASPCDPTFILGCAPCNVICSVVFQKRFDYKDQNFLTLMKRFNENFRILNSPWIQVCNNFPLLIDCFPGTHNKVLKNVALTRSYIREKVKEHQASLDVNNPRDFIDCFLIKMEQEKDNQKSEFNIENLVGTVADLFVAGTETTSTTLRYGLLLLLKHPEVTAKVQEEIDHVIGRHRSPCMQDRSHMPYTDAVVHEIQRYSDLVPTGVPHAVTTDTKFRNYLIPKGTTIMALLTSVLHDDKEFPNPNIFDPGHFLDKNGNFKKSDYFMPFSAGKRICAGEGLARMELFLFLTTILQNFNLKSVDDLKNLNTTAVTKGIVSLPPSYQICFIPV

[10] = molecular target: T1, Sodium channel protein type 9 subunit alpha; test: Inhibition of recombinant mouse Nav1.7 expressed in HEK293 cells at -70 mV holding potential by patch clamp electrophysiology method; format: cell-based
Cytochrome P450 2B6 = molecular target: T4, Cytochrome P450 2B6 (Homo sapiens, UniProt P20813); test: Time-dependant inhibition of CYP2B6 in human liver microsomes; format: ADME
T4 sequence (P20813 whole entry): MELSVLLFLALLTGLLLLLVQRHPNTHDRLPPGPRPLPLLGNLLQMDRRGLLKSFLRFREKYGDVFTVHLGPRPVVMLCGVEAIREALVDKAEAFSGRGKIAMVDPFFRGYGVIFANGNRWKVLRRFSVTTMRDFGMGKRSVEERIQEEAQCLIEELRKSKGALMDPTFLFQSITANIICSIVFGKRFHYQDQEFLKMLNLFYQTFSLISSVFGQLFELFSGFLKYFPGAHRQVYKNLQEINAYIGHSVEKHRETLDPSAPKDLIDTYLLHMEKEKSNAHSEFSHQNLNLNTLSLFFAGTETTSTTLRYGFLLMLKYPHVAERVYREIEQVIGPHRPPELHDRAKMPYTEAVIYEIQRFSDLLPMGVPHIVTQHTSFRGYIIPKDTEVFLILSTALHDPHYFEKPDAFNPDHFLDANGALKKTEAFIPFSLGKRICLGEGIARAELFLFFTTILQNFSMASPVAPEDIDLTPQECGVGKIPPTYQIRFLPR

Mus musculus [11] = test: Reduction in mechanoreceptor-mediated afferent transmission in mouse assessed as effect on sural nerve mechanosensitivity at 30 mg/kg, ip measured at 5 to 120 mins post dose at 1.6 mN threshold pressure; format: functional, organism-based
[12] = Plasma concentration in CD1 mouse model of chronic constriction injury-induced cold allodynia at 3 mg/kg, ip dosed at 5 weeks post surgery and measured 60 mins post dose; format: ADME, organism-based
[13] = molecular target: Sodium channel protein type 2 subunit alpha (Homo sapiens, UniProt Q99250); test: Inhibition of human Nav1.2 expressed in HEK293 cells after 600 secs at -60 mV holding potential by ion works barracuda population patch clamp method; format: cell-based
[14] = Drug uptake in DRG neurons of CD1 mouse model of formalin-induced nociception at 30 mg/kg, ip; format: ADME, organism-based, DRG neuron; settings: in vivo, read-out: Drug uptake
[15] = Toxicity in CD1 mouse model of formalin-induced nociception assessed as prostration or sedation at 30 mg/kg, ip; format: organism-based; settings: in vivo
[16] = Unbound plasma concentration in CD1 mouse model of formalin-induced nociception at 30 mg/kg, ip; format: ADME, organism-based; settings: in vivo
Mus musculus [17] = test: Antinociceptive activity in CD1 mouse model of chronic constriction injury-induced cold allodynia assessed as increase in latency in response to cold at 30 mg/kg, ip dosed 30 mins before testing starting at 5 weeks after surgery relative to control; format: functional
[18] = Unbound plasma concentration in CD1 mouse model of chronic constriction injury-induced cold allodynia at 30 mg/kg, ip dosed at 5 weeks post surgery and measured 60 mins post dose; format: ADME, organism-based; settings: in vivo, 1 h
[19] = molecular target: Sodium channel protein type 3 subunit alpha (Homo sapiens, UniProt Q9NY46); test: Inhibition of human Nav1.3 expressed in HEK293 cells after 600 secs at -60 mV holding potential by ion works barracuda population patch clamp method; format: cell-based

Cytochrome P450 3A4, sequence (P08684 whole entry): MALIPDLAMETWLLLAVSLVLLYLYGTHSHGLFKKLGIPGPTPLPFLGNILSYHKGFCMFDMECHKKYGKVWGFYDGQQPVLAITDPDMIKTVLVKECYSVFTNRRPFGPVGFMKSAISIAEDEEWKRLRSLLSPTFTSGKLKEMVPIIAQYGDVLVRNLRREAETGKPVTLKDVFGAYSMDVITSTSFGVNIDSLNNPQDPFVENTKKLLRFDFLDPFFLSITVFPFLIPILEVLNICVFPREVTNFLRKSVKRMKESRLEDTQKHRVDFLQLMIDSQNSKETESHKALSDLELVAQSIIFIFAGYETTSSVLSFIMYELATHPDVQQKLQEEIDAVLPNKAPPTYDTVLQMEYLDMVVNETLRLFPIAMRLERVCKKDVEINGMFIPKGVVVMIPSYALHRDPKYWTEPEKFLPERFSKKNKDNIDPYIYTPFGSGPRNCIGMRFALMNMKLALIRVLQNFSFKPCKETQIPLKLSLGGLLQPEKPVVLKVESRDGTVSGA

Question: With `CC(C)COc1ccc(-c2cn(C)c3cc(C(=O)NS(C)(=O)=O)c(F)cc23)cn1` as the molecule, how does the “Cp(f)” value [1] read?
Answer: 616 nM

Question: What about the IC50 (Cytochrome P450 3A4) of the same molecule?
Answer: 15 µM

Question: What about the fraction unbound [2] of the same molecule?
Answer: 0.085

Question: What about the Activity (Mus musculus [3]) of the same molecule?
Answer: inactive

Question: And the IC50 [4]?
Answer: 0.014 µM

Question: What about the IC50 [5] of the same molecule?
Answer: > 50 µM

Question: What about the IC50 [6] of the same molecule?
Answer: 16 µM

Question: What about the “Cp(f)” value [7] of the same molecule?
Answer: 532 nM

Question: What about the “Drug uptake(free)” value [8] of the same molecule?
Answer: 84 nM

Question: And the fraction unbound [9]?
Answer: 0.014

Question: What about the IC50 (Cytochrome P450 2D6) of the same molecule?
Answer: > 40 µM

Question: And the TDI (Cytochrome P450 2C8)?
Answer: Not Active

Question: And the IC50 [10]?
Answer: 0.115 µM

Question: What about the TDI (Cytochrome P450 2B6) of the same molecule?
Answer: Not Active

Question: What about the Activity (Mus musculus [11]) of the same molecule?
Answer: inactive

Question: Which results are given for `CC(C)COc1ncc(-c2cn(C)c3cc(C(=O)NS(C)(=O)=O)ccc23)cc1Cl`?
Answer: concentration at 1 h [12]: 3300 nM; IC50 [13]: 16 µM; IC50 (Cytochrome P450 3A4): > 40 µM; fraction unbound [2]: 0.035; Activity (Mus musculus [3]): Active; IC50 [4]: 0.011 µM; IC50 [5]: > 50 µM; IC50 [6]: 19 µM; concentration [14]: 2720 nM; Activity [15]: Non-Toxic; Cp(f) [7]: 126 nM; Cp(f) [16]: 118 nM; Activity (Mus musculus [17]): 25%; Cp(f) [18]: 136 nM; fraction unbound [9]: 0.002; IC50 (Cytochrome P450 2D6): > 40 µM; TDI (Cytochrome P450 2C8): Not Active; IC50 [19]: > 30 µM; IC50 [10]: 0.035 µM; TDI (Cytochrome P450 2B6): Not Active; Activity (Mus musculus [11]): inactive

Source: ChEMBL document CHEMBL4371076 (J Med Chem, 2019)
